According to ChEMBL document CHEMBL1139608, “Non-hydroxamate 5-phenylpyrimidine-2,4,6-trione derivatives as selective inhibitors of tumor necrosis factor-alpha converting enzyme” (Bioorg Med Chem Lett, 2005):

Columns and labels:
[1] = biological target: Disintegrin and metalloproteinase domain-containing protein 17 (Homo sapiens, UniProt P78536); assay: In vitro inhibitory concentration against human tumor necrosis factor-alpha converting enzyme
[2] = In vitro percent inhibition against aggrecanase at the concentration of 1 uM
[3] = biological target: 72 kDa type IV collagenase (Homo sapiens, UniProt P08253); assay: In vitro binding affinity against matrix metalloprotease 2
Collagenase 3 = Collagenase 3 (Homo sapiens, UniProt P45452); assay: In vitro binding affinity against matrix metalloprotease 13
[4] = biological target: Matrix metalloproteinase-9 (Homo sapiens, UniProt P14780); assay: In vitro binding affinity against matrix metalloprotease 9
Interstitial collagenase = biological target: T1, Interstitial collagenase (Homo sapiens, UniProt P03956); assay: In vitro binding affinity against matrix metalloprotease 1
T1 sequence (P03956 whole entry): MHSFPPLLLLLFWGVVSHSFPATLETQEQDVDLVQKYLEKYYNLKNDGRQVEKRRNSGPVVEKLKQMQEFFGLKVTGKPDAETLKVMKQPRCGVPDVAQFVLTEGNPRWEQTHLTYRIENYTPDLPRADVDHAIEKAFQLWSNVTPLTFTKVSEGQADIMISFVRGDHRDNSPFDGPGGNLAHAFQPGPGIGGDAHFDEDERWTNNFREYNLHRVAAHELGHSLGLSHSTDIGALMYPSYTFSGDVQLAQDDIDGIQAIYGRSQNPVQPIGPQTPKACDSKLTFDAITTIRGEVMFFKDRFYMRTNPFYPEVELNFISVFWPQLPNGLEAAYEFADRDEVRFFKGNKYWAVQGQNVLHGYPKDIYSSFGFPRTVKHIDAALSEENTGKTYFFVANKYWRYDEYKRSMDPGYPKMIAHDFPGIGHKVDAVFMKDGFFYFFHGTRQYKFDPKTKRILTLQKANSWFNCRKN

Chain of 72 kDa type IV collagenase (P08253 whole entry): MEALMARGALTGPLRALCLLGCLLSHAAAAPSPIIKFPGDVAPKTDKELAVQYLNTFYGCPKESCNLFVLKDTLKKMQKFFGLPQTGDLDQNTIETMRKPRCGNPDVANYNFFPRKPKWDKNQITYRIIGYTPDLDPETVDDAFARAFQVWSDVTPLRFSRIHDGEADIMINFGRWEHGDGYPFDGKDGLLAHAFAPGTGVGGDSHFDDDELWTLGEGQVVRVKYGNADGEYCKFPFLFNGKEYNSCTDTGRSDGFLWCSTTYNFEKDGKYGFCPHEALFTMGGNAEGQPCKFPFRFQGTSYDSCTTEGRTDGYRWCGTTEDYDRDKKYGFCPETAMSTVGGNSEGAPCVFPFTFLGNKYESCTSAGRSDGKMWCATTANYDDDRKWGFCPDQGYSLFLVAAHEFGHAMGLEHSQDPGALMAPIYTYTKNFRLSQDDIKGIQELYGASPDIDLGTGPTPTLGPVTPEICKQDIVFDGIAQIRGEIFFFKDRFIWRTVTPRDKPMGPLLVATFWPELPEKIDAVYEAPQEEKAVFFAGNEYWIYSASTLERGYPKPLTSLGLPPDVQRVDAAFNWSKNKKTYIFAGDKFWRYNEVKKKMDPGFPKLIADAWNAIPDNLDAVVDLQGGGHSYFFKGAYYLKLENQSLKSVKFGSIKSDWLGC
Chain of Disintegrin and metalloproteinase domain-containing protein 17 (P78536 whole entry, the tested form may be a part): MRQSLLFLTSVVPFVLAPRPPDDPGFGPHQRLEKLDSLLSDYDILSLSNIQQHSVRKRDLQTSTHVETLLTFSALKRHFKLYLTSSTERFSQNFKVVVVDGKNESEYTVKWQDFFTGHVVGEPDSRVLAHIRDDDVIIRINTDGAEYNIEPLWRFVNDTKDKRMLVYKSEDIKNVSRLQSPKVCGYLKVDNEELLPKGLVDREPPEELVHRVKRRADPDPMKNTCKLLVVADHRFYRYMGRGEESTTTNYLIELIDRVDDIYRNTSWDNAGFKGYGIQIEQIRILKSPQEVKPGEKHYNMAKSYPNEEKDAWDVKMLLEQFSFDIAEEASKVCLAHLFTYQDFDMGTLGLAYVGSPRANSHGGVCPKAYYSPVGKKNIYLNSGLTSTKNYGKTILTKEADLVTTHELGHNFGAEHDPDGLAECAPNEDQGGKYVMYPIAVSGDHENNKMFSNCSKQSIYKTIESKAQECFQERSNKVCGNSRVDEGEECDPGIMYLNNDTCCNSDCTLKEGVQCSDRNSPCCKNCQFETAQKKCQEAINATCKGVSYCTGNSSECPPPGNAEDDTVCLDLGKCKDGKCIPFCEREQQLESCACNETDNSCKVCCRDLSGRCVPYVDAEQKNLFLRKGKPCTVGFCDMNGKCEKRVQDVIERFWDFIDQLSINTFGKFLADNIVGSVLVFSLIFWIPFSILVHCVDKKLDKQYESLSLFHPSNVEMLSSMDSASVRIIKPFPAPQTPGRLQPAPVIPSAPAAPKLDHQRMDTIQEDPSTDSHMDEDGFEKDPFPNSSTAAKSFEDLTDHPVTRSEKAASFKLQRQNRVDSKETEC
Chain of Matrix metalloproteinase-9 (P14780 whole entry): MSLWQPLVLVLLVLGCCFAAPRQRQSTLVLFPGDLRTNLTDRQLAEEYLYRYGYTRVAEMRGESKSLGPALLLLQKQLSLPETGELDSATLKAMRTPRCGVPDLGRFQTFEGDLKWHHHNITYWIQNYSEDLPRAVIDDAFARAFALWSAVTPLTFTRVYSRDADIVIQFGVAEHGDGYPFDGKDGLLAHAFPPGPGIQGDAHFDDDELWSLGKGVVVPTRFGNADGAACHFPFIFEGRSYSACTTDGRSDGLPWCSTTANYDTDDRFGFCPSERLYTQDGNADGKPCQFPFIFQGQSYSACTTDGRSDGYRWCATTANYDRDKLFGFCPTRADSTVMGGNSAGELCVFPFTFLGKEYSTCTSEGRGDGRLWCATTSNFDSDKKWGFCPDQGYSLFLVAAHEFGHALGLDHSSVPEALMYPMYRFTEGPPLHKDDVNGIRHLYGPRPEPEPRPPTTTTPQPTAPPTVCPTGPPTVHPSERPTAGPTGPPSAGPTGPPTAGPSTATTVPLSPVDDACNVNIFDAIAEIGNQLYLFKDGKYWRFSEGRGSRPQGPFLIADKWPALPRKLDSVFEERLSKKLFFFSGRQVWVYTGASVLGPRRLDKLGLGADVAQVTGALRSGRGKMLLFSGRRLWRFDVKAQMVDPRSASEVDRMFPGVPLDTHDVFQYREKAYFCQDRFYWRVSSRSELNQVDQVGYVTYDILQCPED

Structure (SMILES)	IC50 [1] [nM]	inhibition [2] [%]	Ki [3] [nM]	Ki (Collagenase 3) [nM]	Ki [4] [nM]	Ki (Interstitial collagenase) [nM]
CC1(c2ccc(O)cc2)C(=O)NC(=O)NC1=O	> 100000	0	2530	> 5020	850	> 4950
Cc1cc(COc2ccc(C3(N4CCOCC4)C(=O)NC(=O)NC3=O)cc2)c2ccccc2n1	535	1	> 3330	> 5020	> 2130	> 4950
Cc1cc(COc2ccc(C3(N4CCCCC4)C(=O)NC(=O)NC3=O)cc2)c2ccccc2n1	855	0	> 3330	> 5020	> 2130	> 4950
Cc1cc(COc2ccc(C3(N4CCN(C(=O)OC(C)(C)C)CC4)C(=O)NC(=O)NC3=O)cc2)c2ccccc2n1	160	10	> 3330	> 5020	> 2130	> 4950
CC(=O)c1ccc(N2CCN(C3(c4ccc(OCc5cc(C)nc6ccccc56)cc4)C(=O)NC(=O)NC3=O)CC2)cc1	620	8	> 3330	> 5020	> 2130	> 4950
Cc1cc(COc2ccc(C3(N4CCN(Cc5ccccc5)CC4)C(=O)NC(=O)NC3=O)cc2)c2ccccc2n1	195	5	> 3330	> 5020	> 2130	> 4950
CC1(c2ccc(OCc3ccccc3)cc2)C(=O)NC(=O)NC1=O	> 100000	0	600	4020	> 2130	> 4950
Cc1cc(COc2ccc(C3(C)C(=O)NC(=O)NC3=O)cc2)c2ccccc2n1	1030	0	> 3330	5020	> 2130	> 4950
Cc1cc(COc2ccc(C3(N4CCN(CCCc5ccccc5)CC4)C(=O)NC(=O)NC3=O)cc2)c2ccccc2n1	110	12	3100	5020	2040	> 4950
CC1(c2ccc(Oc3ccccc3)cc2)C(=O)NC(=O)NC1=O			80	65	52	
Cc1cc(COc2ccc(C3(N4CCN(C(=O)C(C)(C)C)CC4)C(=O)NC(=O)NC3=O)cc2)c2ccccc2n1	5400	0	> 3330	> 5020	> 2130	> 4950
Cc1cc(COc2ccc(C3(N4CCN(c5ccc([N+](=O)[O-])cc5)CC4)C(=O)NC(=O)NC3=O)cc2)c2ccccc2n1	2800	0	116	356	138	> 4350
Cc1cc(COc2ccc3cc(C4(C)C(=O)NC(=O)NC4=O)ccc3c2)c2ccccc2n1	> 100000	1	3330			
CCCCCCN1CCN(C2(c3ccc(OCc4cc(C)nc5ccccc45)cc3)C(=O)NC(=O)NC2=O)CC1	81	12	> 3330	> 5020	> 2130	> 4950
Cc1cc(COc2ccc(C3(N4CCNCC4)C(=O)NC(=O)NC3=O)cc2)c2ccccc2n1	1100	0	> 3330	> 5020	> 2130	> 4950
Cc1cc(COc2ccc(C3(N4CCN(CCc5ccccc5)CC4)C(=O)NC(=O)NC3=O)cc2)c2ccccc2n1	84	38	83	95	85	> 4950
Cc1cc(COc2ccc(C3(N4CCN(CC(C)(C)C)CC4)C(=O)NC(=O)NC3=O)cc2)c2ccccc2n1	160	10	> 3330	> 5020	> 2130	> 4950
Cc1cc(COc2ccc(C3(N4CCN(C(C)C)CC4)C(=O)NC(=O)NC3=O)cc2)c2ccccc2n1	96	0	> 3330	> 5020	> 2130	> 4950
Cc1cc(COc2ccc(C3(N4CCN(S(C)(=O)=O)CC4)C(=O)NC(=O)NC3=O)cc2)c2ccccc2n1	275	5	> 3330	> 5020	> 2130	> 4950
Cc1cc(COc2ccc(C3(N4CCN(C)CC4)C(=O)NC(=O)NC3=O)cc2)c2ccccc2n1	91	37	> 3330	> 5020	> 2130	> 4950
